Paper PMC7737769, “Pharmacological inhibition of syntenin PDZ2 domain impairs breast cancer cell activities and exosome loading with syndecan and EpCAM cargo” (Journal of Extracellular Vesicles, 2020)

Legend:
[1] = target: T1, syntenin‐SDC2 complex (GST-SyntFL / SDC2 peptide) (Homo sapiens, UniProt O00560); assay: HTRF assay, syntenin-SDC2 interaction; type: biochemical; details: for GST SyntFL Syndecan 2 (signal ratio): 400µM compound, Figure 1c; for inhibition of syntenin PDZ interactions: HTRF primary screen, 400µM, syntenin-SDC2 and syntenin-Frizzled7; for HTRF ASSAY GST-SyntFL SDC2 (HTRF signal ratio): primary screen, 400 µM compound, signal below 0.9 considered effective inhibition, Table S1
T1 construct: residues 1–298 or syntenin full‐length (FL) for HTRF assays; made in house; host or cells: E. coli ER2566
T1 sequence (O00560 1-298): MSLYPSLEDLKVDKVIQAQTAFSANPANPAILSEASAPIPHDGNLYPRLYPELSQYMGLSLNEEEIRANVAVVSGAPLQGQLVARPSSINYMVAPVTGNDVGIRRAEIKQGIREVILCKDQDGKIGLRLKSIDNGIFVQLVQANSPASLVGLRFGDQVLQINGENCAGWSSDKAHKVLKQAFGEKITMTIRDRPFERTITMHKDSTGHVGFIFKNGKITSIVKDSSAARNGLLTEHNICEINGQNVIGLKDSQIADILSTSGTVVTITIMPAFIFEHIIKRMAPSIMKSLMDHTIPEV

[2] = tested on: T2, syntenin‐Frizzled7 complex (GST-SyntFL / FZD7 peptide); assay: HTRF assay, syntenin-Frizzled 7 interaction; type: biochemical, human; details: for GST SyntFL Frizzled 7 (signal ratio): 400µM compound, Figure 1c; for HTRF ASSAY GST-SyntFL FZD7 (HTRF signal ratio): primary screen, 400 µM compound, signal below 0.9 considered effective inhibition, Table S1
T2 construct: residues 1–298 or syntenin full‐length (FL) for HTRF assays; made in house; host or cells: E. coli ER2566
Experimental: (§1) HTRF assays were performed in white 96Well Small VolumeHiBase Polystyrene Microplates (Greiner) with a total working volume of […], as described previously (Milhas et al., 2016). Briefly, compounds were firstly dispensed into the wells at 400 µM for the primary screen or with serial DMSO dilutions for IC50 measurement assays. Primary screening assays have been performed in monoplicate while IC50 measurements were performed in triplicates. All HTRF reagents were purchased from CisBio Bioassays and reconstituted according to the supplier protocols. The plates were spun for 3 min at 500 × g and then incubated at 4°C for 16 h. The HTRF signals were recorded on a POLAR star Omega plate reader (BMG Labtech) with an excitation filter at 337 nm and fluorescence wavelength measurement at 620 and 665 nm, an integration delay of 60 µs and an integration time of 400 µs. Results were analysed with a two‐wavelength signal ratio: [intensity (665 nm)/intensity (620 nm)] × 10^4. Percentage of inhibition was calculated using the following equation: % inhibition = [(compound signal)–(min signal)]/[(max signal)–(min signal)] × 100, where ‘max signal’ is the signal ratio with the compound vehicle alone (DMSO) and ‘min signal’ the signal ratio without protein B. For IC50 measurements, values were normalized and fitted with Prism (GraphPad software) using the following equation: Y = 100/(1+((X/ IC50)ˆHill slope)).
(§2) The search strategy for PDZ2 syntenin inhibitors was based on the PDZ targeted library developed from Enamine compound collection. The PDZ targeted library was developed to cover virtually all PDZ domains. Consequently, to create the syntenin PDZ2 focused library we used two independent paths: docking of the PDZ targeted library against structures of syntenin PDZ2 available in Protein Data Bank and a random selection from the PDZ targeted library. The docking has produced 21 virtual hits, which were added to 118 randomly selected compounds (10% of the pan PDZ library). The resultant set of 139 compounds, syntenin PDZ library was subjected to experimental validation. The primary screen was performed at 400µM using a previously validated Homogeneous Time Resolved Fluorescence (HTRF) assay (Milhas et al., 2016). HTRF is based on Fluorescence Resonance Energy Transfer (FRET) between two fluorescent reagents. In the present case, Anti‐GST‐Terbium antibody and streptavidin‐bound Dynamic2 were used as donor and acceptor respectively. Interactions between GST PDZ‐fusion proteins and biotinylated peptides containing PDZ binding motifs were challenged with the potential inhibitors. In parallel, control experiments were performed with a biotinylated‐GST to verify that compounds were not interfering with the FRET signal in a non‐specific manner. To identify inhibitors of syntenin PDZ interactions, we tested for the effect of the 139 compounds on syntenin‐SDC2 and syntenin‐Frizzled7 complexes (Figure 1a; Table S1). When the HTRF signal dropped below 0.9, inhibition was considered as effective. […] Noteworthy, these compounds had no effect on other PDZ complexes like GRASP55‐JAM‐B or GRASP55‐JAM‐C and Erbin‐Erbb2 or Erbin‐P0071 (Figure 1c).

biotinylated‐GST = assay: HTRF control with biotinylated-GST (non-specific interference with FRET signal); details: for GST-biot (signal ratio): 400µM compound, Figure 1c; for effect on control (biotinylated‐GST) FRET signals: HTRF primary screen, 400µM; for HTRF ASSAY GST-biot (HTRF signal ratio, control): primary screen, 400 µM compound, Table S1
Experimental: as §1, §2

GRASP55‐JAM‐B complex = tested on: T3, GRASP55‐JAM‐B complex; assay: HTRF assay, GRASP55-JAM-B interaction; type: biochemical, human; details: 400µM compound; Figure 1c
T3 construct: Human GRASP55 tandem PDZ; made in house; host or cells: E. coli BL21 (DE3)
Experimental: as §1, §2

GRASP55‐JAM‐C complex = tested on: T4, GRASP55‐JAM‐C complex; assay: HTRF assay, GRASP55-JAM-C interaction; type: biochemical, human; details: 400µM compound; Figure 1c
T4 construct: Human GRASP55 tandem PDZ; made in house; host or cells: E. coli BL21 (DE3)
Experimental: as §1, §2

Erbin‐Erbb2 complex = tested on: T5, Erbin‐Erbb2 complex; assay: HTRF assay, Erbin-ERBB2 interaction; type: biochemical, human; details: 400µM compound; Figure 1c
T5 construct: human Erbin PDZ domain; made in house; host or cells: E. coli BL21 (DE3)
Experimental: as §1, §2

Erbin‐P0071 complex = tested on: T6, Erbin‐P0071 complex; assay: HTRF assay, Erbin-P0071 interaction; type: biochemical, human; details: 400µM compound; Figure 1c
T6 construct: human Erbin PDZ domain; made in house; host or cells: E. coli BL21 (DE3)
Experimental: as §1, §2

SMILES	GST SyntFL Syndecan 2 (signal ratio) [1]	inhibition of syntenin PDZ interactions [1]	HTRF ASSAY GST-SyntFL SDC2 (HTRF signal ratio) [1]	GST SyntFL Frizzled 7 (signal ratio) [2]	HTRF ASSAY GST-SyntFL FZD7 (HTRF signal ratio) [2]	GST-biot (signal ratio) (biotinylated‐GST)	effect on control (biotinylated‐GST) FRET signals (biotinylated‐GST)	HTRF ASSAY GST-biot (HTRF signal ratio, control) (biotinylated‐GST)	GST-GRASP JAM-B (signal ratio) (GRASP55‐JAM‐B complex)	GST-GRASP JAM-C (signal ratio) (GRASP55‐JAM‐C complex)	GST-Erbin ERBB2 (signal ratio) (Erbin‐Erbb2 complex)	GST-Erbin P0071 (signal ratio) (Erbin‐P0071 complex)	inhibition at 400 µM ([1]; HTRF, 400 µM, syntenin-SDC2 and syntenin-Frizzled 7 complexes, read-out: extent of inhibition of Syntenin‐PDZ complexes)
CC(C)[C@H](NC(=O)COc1ccc2ccccc2c1)C(=O)O [Compound C4]	0.78	inhibit	0.78	0.78	0.77	0.97	no significant effect	1.02	0.97	0.89	1.02	0.89	–
CC(C)[C@H](NS(=O)(=O)c1ccc2c(c1)OCCCO2)C(=O)O [Compound C37]	0.74	inhibit	0.73	0.7	0.68	0.97	no significant effect	1.04	1	1	1.04	0.95	–
CC(C)[C@H](NS(=O)(=O)c1ccc2ccccc2c1)C(=O)O [Compound C38]	0.58	inhibit	0.59	0.55	0.56	0.96	no significant effect	0.92	1	1	0.92	1	40%
Cc1ccc(S(=O)(=O)N[C@H](C(=O)O)C(C)C)cc1C [Compound C47]	0.78	inhibit	0.74	0.78	0.71	0.99	no significant effect	0.96	1.1	1	0.96	1	–
